Assay results from PubChem BioAssay AID493058 (The Scripps Research Institute Molecular Screening Center, 2011).
The source made the active and inactive calls.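 Rule for the calls: active = EC50 of 10 µM or lower; inactive = EC50 above 10 µM.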

The molecules below were run on DHL10 Bax/Bak-deficient cells, cytotoxicity, MTS absorbance (assay: cytotoxicity in Bax/Bak-deficient DHL10 cells, late-stage follow-up, counter-screen for MCL1-BIM inhibitor project, cell-based, MTS absorbance, EC50 (AID 493058)).
In the case of `Cc1ccc(NC(=O)c2cc(-c3ccco3)nc3ccccc23)cc1S(=O)(=O)N1CCOCC1`, the EC50 is reported as > 25 µM (inactive).
`Cc1ccc(-c2cc(C(=O)Nc3cccnc3)c3ccccc3n2)o1` was tested, and the EC50 was > 25 µM (inactive).
`Cc1cccc(NC(=O)c2cc(-c3ccc(C)o3)nc3ccccc23)n1` was tested, and the EC50 was > 25 µM (inactive).
With `COc1ccc(Cc2nnc(NC(=O)Cc3cccc(Br)c3)s2)cc1OC` the EC50 was > 25 µM (inactive).
With `CCC(=O)Nc1nnc(Cc2ccccc2)s1` the EC50 was > 25 µM (inactive).
`COc1ccc(NC(=O)CN(C)C(=O)c2cc(-c3ccc(C)o3)nc3ccccc23)cc1` was tested, and the EC50 was > 25 µM (inactive).
For `COc1ccc(NC(=O)c2cc(-c3ccco3)nc3ccccc23)cn1`, the EC50 was > 25 µM (inactive).
`COc1ccc(Cc2nnc(NC(=O)Cc3cccnc3)s2)cc1OC` was tested, and the EC50 was > 25 µM (inactive).
For `CCCCn1c(N)c(N(CCC(C)C)C(=O)c2cc(-c3ccco3)nc3ccccc23)c(=O)[nH]c1=O`, the EC50 was > 25 µM (inactive).
`Cc1cccc(NC(=O)c2cc(-c3ccco3)nc3ccc(Br)cc23)n1` showed an EC50 of 10 µM.
In the case of `CCCC(=O)Nc1nnc(Cc2ccccc2)s1`, the EC50 is reported as > 25 µM (inactive).
For `O=C(Nc1ccccc1N1CCOCC1)c1cc(-c2ccco2)nc2ccccc12`, the EC50 was > 25 µM (inactive).
For `COc1ccc(Cc2nnc(NC(=O)Cc3ccsc3)s2)cc1OC`, the EC50 was > 25 µM (inactive).
`Cc1ccc(-c2cc(C(=O)NCC(c3ccccc3)N(C)C)c3ccccc3n2)o1` (configuration not stated) was tested, and the EC50 was > 25 µM (inactive).
With `O=C(NCCCN1CCOCC1)c1cc(-c2ccco2)nc2ccccc12` the EC50 was > 25 µM (inactive).
For `COc1ccc(Cc2nnc(NC(=O)Cc3c[nH]c4ccccc34)s2)cc1OC`, the EC50 was > 25 µM (inactive).
For `CN(CCOc1ccccc1)C(=O)c1cc(-c2ccco2)nc2ccccc12`, the EC50 was > 25 µM (inactive).
For `CCCCN(C(=O)c1cc(-c2ccco2)nc2ccccc12)c1c(N)n(CCC)c(=O)[nH]c1=O`, the EC50 was > 25 µM (inactive).
In the case of `CCCn1c(N)c(N(CCOC)C(=O)c2cc(-c3ccco3)nc3ccccc23)c(=O)[nH]c1=O`, the EC50 is reported as > 25 µM (inactive).
With `O=C(Nc1ccccc1F)c1cc(-c2ccco2)nc2ccccc12` the EC50 was > 25 µM (inactive).
`Cc1ccc(-c2cc(C(=O)Nc3nccs3)c3ccccc3n2)o1` was tested, and the EC50 was > 25 µM (inactive).
In the case of `Cc1ccc(-c2cc(C(=O)NCCN3CCOCC3)c3ccccc3n2)o1`, the EC50 is reported as > 25 µM (inactive).
With `Cc1ccc(-c2cc(C(=O)N3CC(C)OC(C)C3)c3ccccc3n2)o1` (configuration not stated) the EC50 was > 25 µM (inactive).
In the case of `O=C(Nc1ccccn1)c1cc(-c2ccco2)nc2ccc(Br)cc12`, the EC50 is reported as 10 µM.
For `COc1cccc(CC(=O)Nc2nnc(Cc3ccc(OC)c(OC)c3)s2)c1`, the EC50 was > 25 µM (inactive).
With `COc1ccc(Cc2nnc(NC(=O)c3cc(-c4ccc(C)o4)nc4ccccc34)s2)cc1OC` the EC50 was 25 µM (inactive).
In the case of `COc1ccccc1NC(=O)c1cc(-c2ccc(C)o2)nc2ccccc12`, the EC50 is reported as > 25 µM (inactive).
